In US11059801B2, “Methods to induce targeted protein degradation through bifunctional molecules” (Dana-Farber Cancer Institute, Inc., priority 2014, dated 2021):
Like-named read-outs stand apart in the source and are kept apart here.

Experiments:
BRD4 [1] = target: T1, BRD4 (Homo sapiens (Human), UniProt O60885); assay: BRD4 AlphaScreen; type: binding; details: Table 4-1
Protocol: Cells were grown at 37° C. to an OD of 0.8, induced with 500 μM isopropyl-1-thio-D-galactopyranoside, incubated overnight at 17° C., collected by centrifugation, and stored at −80° C. Cell pellets were sonicated in buffer A (50 mM hepes 7.5+300 mM NaCl+10% glycerol+10 mM Imidazole+3 mM BME) and the resulting lysate was centrifuged at 35,000×g for 40 min. […] The sample was then passed through a desalting column ( 26/10 column) equilibrate with buffer A (without imidazole), and the eluted protein was subjected to a second Ni-NTA step to remove His-tag and TEV. The eluant was concentrated and passed through a Superdex-200 10/300 column in 20 mM hepes7.5+150 mM NaCl+1 mM DTT. Fractions were pooled, concentrated to 14 mg/ml, and frozen at −80° C.
The data were analyzed using PRISM Graphpad v6 to obtain IC50 values.

[2] = target: BRD4 adjoined to nanoluciferase (Nluc) (Homo sapiens (Human), UniProt O60885+Q96SW2); assay: BRD4 Dual Luciferase Assay; type: cell-based; details: for pDC50 (dual luc) / DC50: 4 hours; for DC50: Dual Luciferase
Protocol: Transduced cells were selected with puromycin and expanded. […] Cells were incubated with compound for 4 hours at 37° C., 5% CO2 and then allowed to cool to room temperature. To each plate was added 25 μL of Fluc buffer (200 mM Tris, 15 mM MgSO4, 100 uM EDTA, 1 mM DTT, 1 mM ATP, 200 uM Coenzyme A, 400 uM D-Luciferin, 0.1% Trition X-100).

CRBN-DDB1/BRD4 = CRBN-DDB1/BRD4 (Homo sapiens (Human), UniProt O60885+Q96SW2); assay: CRBN-DDB1/BRD4 Dimerization Assay; type: binding;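 note: AlphaScreen proximity signal between GST-tagged BRD4 and CRBN-DDB1 with glutathione donor and nickel chelate acceptor beads, read after 1 hr compound incubation at room temperature, values from Gaussian curve fit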
BRD4 [3] = target: T1, BRD4; assay: BRD4 Cell Western (BRD4 levels in 293T cells, LiCOR); type: cell-based
Protocol: On the following day, dBET compounds were added at various concentrations. After being treated with the dBET compounds for 4 hours, cells were fixed with formaledhyde, permeabilized using 0.1% triton, blocked with LiCor blocking buffer, and incubated with the primary antibody (BRD4, 1:1000) overnight. On the following day, cells were washed (5×TBST) and stained using Odysee Cell Stain (1:500). A secondary antibody recoginizing the rabbit BRD4 antibody was added simultaneously (1:800). Images were quantified using LiCOR imager.

GST-FKBP12 (WT) = GST-FKBP12 (WT) (Homo sapiens (Human), UniProt P62942); assay: FKBP12 Ligand-Displacement AlphaScreen Assay (WT); type: binding; details: read-out: IC50 (nM) FKBP
Chain of GST-FKBP12 (WT) (P62942 whole entry): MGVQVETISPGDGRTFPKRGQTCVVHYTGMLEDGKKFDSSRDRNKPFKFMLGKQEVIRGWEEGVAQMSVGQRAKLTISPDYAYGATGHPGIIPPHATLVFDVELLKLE
Protocol: (§1) Following a 30 min-incubation, 20 uL detection solution containing Streptavidin Donor Beads and Glutathione Acceptor Beads diluted to 20 ng/uL in assay buffer was added to each well. […] Percent activity values were calculated by setting the average background (no protein wells) to 0% the average DMSO wells to 100% activity. Standard deviations were determined from at least four replicate measurements for compound concentration.

GST-FKBP12 (36V) = GST-FKBP12 (36V) (Homo sapiens (Human), UniProt P62942, F36V); assay: FKBP12 Ligand-Displacement AlphaScreen Assay (36V); type: binding; details: read-out: IC50 (nM) FKBP 36V
Chain of GST-FKBP12 (36V) (P62942 whole entry F37V, the tested form may be a part): as the sequence (P62942 whole entry) above, with F37V counted along it
Protocol: as §1

[4] = target: fusion of FKBP12 to nanoluciferase (Homo sapiens (Human), UniProt P62942+Q96SW2); assay: FKBP Dual Luciferase Assay (FKBP12); type: cell-based; details: 4 hours
Protocol: (§2) The cells were treated with increasing concentrations of various dFKBPs for 4 hours. The amount of NLuc and FLuc was measured, and the abundance of the FKBP12-HA-NLuc was quantified by calculating the signal ratio of NLuc/FLuc.

[5] = target: fusion of mutant FKBP12 to nanoluciferase (Homo sapiens (Human), UniProt P62942+Q96SW2, F36V); assay: FKBP Dual Luciferase Assay (mutant FKBP12, 36V); type: cell-based; details: 4 hours; for DC50: read-out: DC50 (nM) FKBP 36V;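 for all read-outs here: cells exposed to rising degrader concentrations, FKBP12 fusion level read as NLuc/FLuc signal ratio, lower ratio means more degradation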
Protocol: as §2

NGP = assay: Cell viability, ATPlite, 72 hours; type: cell-based; details: NGP cells, Table 4-1
BRD4 [6] = target: T1, BRD4; assay: BRD4 immunoblot in MV4-11 cells; type: cell-based; details: MV4-11, 24 h
[7] = target: IKZF1 adjoined to nanoluciferase (Nluc) (Homo sapiens (Human), UniProt Q13422); assay: IKZF1 Dual Luciferase Assay; type: cell-based; details: 4 hours; read-out: Nluc/Fluc IKZF1 IC50
Protocol: Transduced cells were selected with puromycin at 2 μg/mL and expanded. […] Cells were incubated with compound for 4 hours at 37° C., 5% CO2 and then allowed to cool to room temperature. To each plate was added 25 μL of Fluc buffer (200 mM Tris, 15 mM MgSO4, 100 uM EDTA, 1 mM DTT, 1 mM ATP, 200 uM Coenzyme A, 400 uM D-Luciferin, 0.1% Trition X-100).

[8] = Gaussian fit of dimerization signal
[9] = Gaussian fit parameter of dimerization signal

Row | Conc@Emax ([2]; concentration at Emax) | Dimer Amplitude (CRBN-DDB1/BRD4; [8]) | Dimer Mean (CRBN-DDB1/BRD4; [8]) | Dimer SD (CRBN-DDB1/BRD4; [9]) | Compound | other results
1 | – | – | – | – | Cc1cnc(Nc2ccc(N3CCN(C(=O)CCCNC(=O)COc4cccc5c4C(=O)N(C4CCC(=O)NC4=O)C5=O)CC3)cc2)nc1Nc1cccc(S(=O)(=O)NC(C)(C)C)c1 (centres unmarked) [dBET20] | IC50 (BRD4 [1]): 5700 nM; pDC50 (dual luc) [2]: 6.686
2 | 0.001581 µM | 1752 | −7.037 | 1.263 | Cc1sc2c(c1C)C(c1ccc(Cl)cc1)=N[C@@H](CC(=O)NCCCCOc1cccc3c1C(=O)N(C1CCC(=O)NC1=O)C3=O)c1nnc(C)n1-2 (some centres unmarked) [dBET28] | –
3 | 15.81 µM | 1722 | −7.069 | 1.225 | Cc1c(CC#N)sc2c1C(c1ccc(Cl)cc1)=N[C@@H](CC(=O)NCCCCNC(=O)COc1cccc3c1C(=O)N(C1CCC(=O)NC1=O)C3=O)c1nnc(C)n1-2 (some centres unmarked) [dBET19] | –
4 | 50 µM | 30326 | −7.422 | 0.8533 | Cc1c(C(=O)NCCCCNC(=O)COc2cccc3c2C(=O)N(C2CCC(=O)NC2=O)C3=O)sc2c1C(c1ccc(Cl)cc1)=N[C@@H](CC(=O)NCCCN1CCN(C)CC1)c1nnc(C)n1-2 (some centres unmarked) [dBET30] | DC50 [2]: 2100 nM; pDC50 (dual luc) [2]: 5.679
5 | 1.581 µM | 13116 | −8.173 | 0.618 | Cc1sc2c(c1C)C(c1ccc(Cl)cc1)=N[C@@H](CC(=O)NCCCN1CCN(C(=O)CCCCCNC(=O)COc3cccc4c3C(=O)N(C3CCC(=O)NC3=O)C4=O)CC1)c1nnc(C)n1-2 (some centres unmarked) [dBET18] | DC50 (BRD4 [3]): 196 nM; DC50 [2]: 243 nM; pDC50 (dual luc) [2]: 6.614
6 | – | – | – | – | CCC(C)(C)C(=O)C(=O)N1CCCC[C@H]1C(=O)O[C@H](CCc1ccc(OC)c(OC)c1)c1cccc(OCC(=O)NCCCCNC(=O)COc2cccc3c2C(=O)N(C2CCC(=O)NC2=O)C3=O)c1 (some centres unmarked) [c1FKBP-4] | IC50 (GST-FKBP12 (WT)): 408 nM; IC50 (GST-FKBP12 (36V)): 369 nM; Max Degradation (dual luciferase, %) FKBP [4]: 34%; Max Degradation (dual luciferase, %) FKBP 36V [5]: 21%
7 | 0.5 µM | 11278 | −7.202 | 0.7693 | Cc1sc2c(c1C)C(c1ccc(Cl)cc1)=N[C@@H](CC(=O)NCCOCCOc1cccc3c1C(=O)N(C1CCC(=O)NC1=O)C3=O)c1nnc(C)n1-2 (some centres unmarked) [dBET27] | –
8 | – | – | – | – | CC[C@H](C(=O)N1CCCC[C@H]1C(=O)O[C@H](CCc1ccc(OC)c(OC)c1)c1cccc(OCC(=O)NCCCOCCOCCOCCCNC(=O)COc2cccc3c2C(=O)N(C2CCC(=O)NC2=O)C3=O)c1)c1cc(OC)c(OC)c(OC)c1 (some centres unmarked) [c1FKBP*-7] | IC50 (GST-FKBP12 (WT)): > 50000 nM; IC50 (GST-FKBP12 (36V)): 373 nM; DC50 ([5]; FKBP 36V): 0.5 nM
9 | 50 µM | 12824 | −7.349 | 0.5165 | CC[C@@H]1C(=O)N(C)c2cnc(Nc3ccc(C(=O)NCCCOCCOCCOCCCNC(=O)COc4cccc5c4C(=O)N(C4CCC(=O)NC4=O)C5=O)cc3OC)nc2N1C1CCCC1 (some centres unmarked) [dBET10] | DC50 (BRD4 [3]): 58 nM
10 | 15.81 µM | 32323 | −7.374 | 0.6046 | Cc1c(C(=O)NCCCCCCCCNC(=O)COc2cccc3c2C(=O)N(C2CCC(=O)NC2=O)C3=O)sc2c1C(c1ccc(Cl)cc1)=N[C@@H](CC(=O)NCCCN1CCN(C)CC1)c1nnc(C)n1-2 (some centres unmarked) [dBET31] | –
11 | – | – | – | – | CCC(C)(C)C(=O)C(=O)N1CCC[C@H]1C(=O)O[C@H](CCc1ccc(OC)c(OC)c1)c1cccc(OCC(=O)NCCCCNC(=O)COc2cccc3c2C(=O)N(C2CCC(=O)NC2=O)C3=O)c1 (some centres unmarked) [c1FKBP-3] | IC50 (GST-FKBP12 (WT)): 1830 nM; IC50 (GST-FKBP12 (36V)): 1200 nM; DC50 [4]: 19700 nM; Max Degradation (dual luciferase, %) FKBP [4]: 22%; Max Degradation (dual luciferase, %) FKBP 36V [5]: 12%
12 | – | – | – | – | Cc1sc2c(c1C)C(c1ccc(Cl)cc1)=N[C@@H](CC(=O)NCCCCCCCCNC(=O)COc1cccc3c1C(=O)N(C1CCC(=O)NC1=O)C3=O)c1nnc(C)n1-2 (some centres unmarked) [dBET6] | IC50 (nM) NGP (NGP): 187/6
13 | 0.5 µM | 16389 | −7.497 | 0.6763 | Cc1sc2c(c1C)C(c1ccc(Cl)cc1)=N[C@@H](CC(=O)NCCNC(=O)COc1cccc3c1C(=O)N(C1CCC(=O)NC1=O)C3=O)c1nnc(C)n1-2 (some centres unmarked) [dBET3] | –
14 | – | – | – | – | CCC(C)(C)C(=O)C(=O)N1CCCC[C@H]1C(=O)O[C@H](CCc1ccc(OC)c(OC)c1)c1cccc(NC(=O)CCC(=O)NCCCCNC(=O)COc2cccc3c2C(=O)N(C2CCC(=O)NC2=O)C3=O)c1 (some centres unmarked) [dFKBP-1] | IC50 (GST-FKBP12 (36V)): 237 nM; DC50 [4]: 11 nM; DC50 ([5]; FKBP 36V): 153 nM
15 | – | 173.7 | −6.366 | 3.287 | COc1cc(C(=O)NCCCOCCOCCOCCCNC(=O)COc2cccc3c2C(=O)N(C2CCC(=O)NC2=O)C3=O)ccc1Nc1ncc2c(n1)N(C)c1ccccc1C(=O)N2C (centres unmarked) [dBET12] | IC50 (BRD4 [1]): 2080 nM
16 | – | – | – | – | Cc1sc2c(c1C)C(c1ccc(Cl)cc1)=N[C@@H](CC(=O)NCCCCCCNC(=O)c1ccc3c(c1)C(=O)N(C1CCC(=O)NC1=O)C3=O)c1nnc(C)n1-2 (some centres unmarked) [dBET15] | Conc@Emax [2]: 5 µM; Dimer Amplitude (CRBN-DDB1/BRD4): 13540; Dimer Mean (CRBN-DDB1/BRD4): −7.111; Dimer SD (CRBN-DDB1/BRD4): 0.6279
17 | – | – | – | – | CC[C@H](C(=O)N1CCCC[C@H]1C(=O)O[C@H](CCc1ccc(OC)c(OC)c1)c1cccc(OCC(=O)NCCCCCCNC(=O)COc2cccc3c2C(=O)N(C2CCC(=O)NC2=O)C3=O)c1)c1cc(OC)c(OC)c(OC)c1 (some centres unmarked) [c1FKBP*-8] | IC50 (GST-FKBP12 (WT)): > 50000 nM; IC50 (GST-FKBP12 (36V)): 365 nM; Dmax ([4]; read-out: Max Degradation (dual luciferase, %) FKBP): < 5%; DC50 ([5]; FKBP 36V): 0.8 nM; Dmax ([5]; FKBP 36V, read-out: Max Degradation (dual luciferase, %) FKBP 36V): 75%
18 | – | – | – | – | CC[C@H](C(=O)N1CCCC[C@H]1C(=O)O[C@H](CCc1ccc(OC)c(OC)c1)c1cccc(OCC(=O)NCCCCNC(=O)COc2cccc3c2C(=O)N(C2CCC(=O)NC2=O)C3=O)c1)c1cc(OC)c(OC)c(OC)c1 (some centres unmarked) [c1FKBP*-6] | IC50 (GST-FKBP12 (WT)): > 50000 nM; IC50 (GST-FKBP12 (36V)): 311 nM; DC50 ([5]; FKBP 36V): 1.3 nM
19 | 1.581 µM | 18644 | −6.277 | 0.4127 | Cc1sc2c(c1C)C(c1ccc(Cl)cc1)=N[C@@H](CC(=O)NCCCCCCNC(=O)COc1cccc3c1C(=O)N(C1CCC(=O)NC1=O)C3=O)c1nnc(C)n1-2 (some centres unmarked) [dBET5] | –
20 | 0.05 µM | 1454 | −7.756 | 0.7393 | Cc1sc2c(c1C)C(c1ccc(Cl)cc1)=N[C@@H](CC(=O)NCCCCCCOc1cccc3c1C(=O)N(C1CCC(=O)NC1=O)C3=O)c1nnc(C)n1-2 (some centres unmarked) [dBET29] | –
21 | – | – | – | – | COc1ccc(CC[C@@H](OC(=O)[C@@H]2CCCCN2C(=O)Cc2ccccc2)c2cccc(OCC(=O)NCCCCNC(=O)COc3cccc4c3C(=O)N(C3CCC(=O)NC3=O)C4=O)c2)cc1OC (some centres unmarked) [c1FKBP-5] | IC50 (GST-FKBP12 (WT)): > 50000 nM; IC50 (GST-FKBP12 (36V)): 2290 nM; DC50 [4]: 2970 nM; Max Degradation (dual luciferase, %) FKBP [4]: 11%; Max Degradation (dual luciferase, %) FKBP 36V [5]: <5%
22 | 5 µM | 31348 | −7.489 | 0.6531 | Cc1sc2c(c1C)C(c1ccc(Cl)cc1)=N[C@@H](CC(=O)NCCOCCOCCNC(=O)COc1cccc3c1C(=O)N(C1CCC(=O)NC1=O)C3=O)c1nnc(C)n1-2 (some centres unmarked) [dBET24] | –
23 | – | – | – | – | O=C1CCC(N2C(=O)c3ccccc3C2=O)C(=O)N1 (centres unmarked) [thalidomide] | BRD4 degradation by compound alone (immunoblot) (BRD4 [6]): insufficient to induce BRD4 degradation
24 | – | – | – | – | Cc1cccc2c1C(=O)N(C1CCC(=O)NC1=O)C2=O [Compound D-19, 2-(2,6-dioxopiperidin-3-yl)-4-methylisoindoline-1,3-dione] | DC50 [7]: 0.111 µM

Row | Compound | Conc@Emax ([2]; concentration at Emax) | Dimer Amplitude (CRBN-DDB1/BRD4; [8]) | Dimer Mean (CRBN-DDB1/BRD4; [8]) | Dimer SD (CRBN-DDB1/BRD4; [9]) | other results
25 | CC[C@@H]1C(=O)N(C)c2cnc(Nc3ccc(C(=O)NCCCCCCNC(=O)COc4cccc5c4C(=O)N(C4CCC(=O)NC4=O)C5=O)cc3OC)nc2N1C1CCCC1 (some centres unmarked) [dBET7] | 0.5 µM | 31800 | −6.18 | 0.4549 | –
